Columns and labels:
[1] = target: T1, NHE1-mediated Na+/H+-exchange in MCF-7 human breast cancer cells (Homo sapiens, UniProt P19634); conditions: Lauritzen et al., 2010; cited from earlier work
T1 construct: net acid extrusion from MCF-7 cells occurs through a combination of NBCn1-mediated Na^+,HCO3^−-cotransport and NHE1-mediated Na^+/H^+-exchange; endogenous in cells; host or cells: MCF-7 human breast cancer cells (Lauritzen et al., 2010)

[2] = test system: Na+,HCO3−-cotransport in breast cancer slices or freshly isolated breast cancer organoids; conditions: earlier work; cited from earlier work
[3] = test system: VSMC migration in primary aortic explants; test: Scratch-wound healing in primary aortic explants; type: cell-based, mouse
Procedure: (§1) Rates of wound healing in primary explants were calculated from time-lapse images captured at 5-minute intervals after scratch infliction. Experiments were performed in Minimum Essential Medium with 10% fetal calf serum or—to avoid binding of the non-selective Na^+,HCO3^−-cotransport inhibitor S0859 to medium or serum components—in physiological saline solutions (PSS). Cell size was estimated based on cell density in confluent areas. Total filopodia length was determined relative to the length of the migrating front (i.e., twice the scratch length). Cell proliferation was evaluated (a) by counting the relative number of cells dividing during six hours time-lapse imaging and (b) as the proportion of cells positive for the thymidine analogue bromodeoxyuridine (BrdU) after six hours incubation.
(§2) The PSS was composed of (in mM) 134 Na^+, 4 K^+, 1.6 Ca^2+, 1.2 Mg^2+, 111 Cl^−, 24 HCO3^−, 1.2 SO4^2−, 1.18 H2PO4^−, 10 HEPES, 5.5 glucose, 0.03 EDTA. In Na^+-free solutions, Na^+ was substituted with an equimolar amount of N-methyl-D-glucammonium (NMDG^+), except for NaHCO3, which was replaced with choline-HCO3. In HCO3^−-free solutions, HCO3^− was replaced with an equimolar amount of Cl^−. HCO3^−-containing solutions were aerated with a gas mixture of 5% CO2/balance air, whereas HCO3^−-free solutions were gassed with air (i.e., 21% O2/balance N2). All solutions were titrated to pH 7.4 at 37° C.

primary aortic explants = test: Cell integrity, morphology and viability during 18 hours of time-lapse imaging; type: cell-based, mouse
Procedure: as §1, §2

[4] = earlier work; cited from earlier work
[5] = test system: VSMCs of primary aortic explants; test: VSMC proliferation by time-lapse counting of mitoses; type: cell-based, mouse; conditions: 5 μM, PSS, six hours time-lapse
Procedure: as §1

[6] = test system: Na+,HCO3−-cotransport in isolated arteries; conditions: previously shown; cited from earlier work
[7] = target: T2, NBCn1-mediated Na+,HCO3−-cotransport in MCF-7 human breast cancer cells (Homo sapiens, UniProt Q9Y6M7); conditions: earlier work; cited from earlier work
T2 construct: net acid extrusion from MCF-7 cells occurs through a combination of NBCn1-mediated Na^+,HCO3^−-cotransport and NHE1-mediated Na^+/H^+-exchange; endogenous in cells; host or cells: MCF-7 human breast cancer cells (Lauritzen et al., 2010)
T2 sequence (Q9Y6M7 1-1214): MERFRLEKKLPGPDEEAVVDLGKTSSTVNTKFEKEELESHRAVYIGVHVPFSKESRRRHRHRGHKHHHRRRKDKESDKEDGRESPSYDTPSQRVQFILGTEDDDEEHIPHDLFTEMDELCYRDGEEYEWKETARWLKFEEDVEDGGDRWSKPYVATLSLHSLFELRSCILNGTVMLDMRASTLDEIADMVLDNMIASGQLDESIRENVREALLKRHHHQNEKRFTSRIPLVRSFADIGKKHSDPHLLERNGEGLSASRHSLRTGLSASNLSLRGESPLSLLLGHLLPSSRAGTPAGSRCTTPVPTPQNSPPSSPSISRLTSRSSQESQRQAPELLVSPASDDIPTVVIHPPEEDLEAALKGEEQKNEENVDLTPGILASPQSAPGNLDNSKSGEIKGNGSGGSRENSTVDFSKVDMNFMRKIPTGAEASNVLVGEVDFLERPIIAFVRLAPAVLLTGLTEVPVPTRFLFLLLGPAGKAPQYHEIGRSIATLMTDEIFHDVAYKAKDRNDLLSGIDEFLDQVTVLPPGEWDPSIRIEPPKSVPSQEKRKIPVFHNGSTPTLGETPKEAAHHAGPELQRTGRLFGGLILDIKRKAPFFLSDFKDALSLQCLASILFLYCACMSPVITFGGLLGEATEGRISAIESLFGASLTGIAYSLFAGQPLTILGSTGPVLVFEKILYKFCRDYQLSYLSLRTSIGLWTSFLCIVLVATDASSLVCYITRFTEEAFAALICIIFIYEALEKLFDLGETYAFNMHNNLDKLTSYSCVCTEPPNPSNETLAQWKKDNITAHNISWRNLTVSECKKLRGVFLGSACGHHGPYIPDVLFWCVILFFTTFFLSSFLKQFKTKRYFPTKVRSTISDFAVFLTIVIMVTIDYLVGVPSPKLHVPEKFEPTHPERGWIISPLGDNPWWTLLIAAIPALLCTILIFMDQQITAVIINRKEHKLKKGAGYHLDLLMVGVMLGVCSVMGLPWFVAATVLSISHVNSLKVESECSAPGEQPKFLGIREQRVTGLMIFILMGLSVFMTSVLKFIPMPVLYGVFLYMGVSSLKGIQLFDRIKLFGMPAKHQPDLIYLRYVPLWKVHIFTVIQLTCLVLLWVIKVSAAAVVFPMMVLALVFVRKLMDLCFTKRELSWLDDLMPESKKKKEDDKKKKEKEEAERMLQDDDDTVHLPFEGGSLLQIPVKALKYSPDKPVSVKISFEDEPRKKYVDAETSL

[8] = test system: axial pHi gradient in migrating VSMCs of primary aortic explants; test: Subcellular pHi by confocal microscopy (carboxy SNARF-1) in migrating VSMCs; type: cell-based, mouse
Procedure: (§3) Using wide-field fluorescence microscopy, global pHi was recorded in arteries and primary explants loaded with the pH-sensitive fluorophore BCECF. Recordings of pHi in subcellular domains were performed by confocal fluorescence microscopy of cells loaded with the pH-sensitive fluorophore carboxy SNARF-1. Intracellular buffering capacities were calculated from changes in pHi upon washout of NH4Cl. No difference in total intracellular buffering capacity (β) was seen between primary explants from NBCn1 KO and WT mice (βWT=15±2 mM, βKO=17±2 mM, n=8; P=0.45, unpaired two-tailed Student's t-test) evaluated at pHi 6.65-6.80.
Previous studies from non-vascular cell types propose that increased acid extrusion at the leading edge of migrating cells creates an axial pHi gradient, which can facilitate actin polymerization, filopodia formation, and cell migration. To investigate pH gradients within cells, we measured pHi -differences between the tip of filopodia and the general (perinuclear) cytosol two hours after scratch infliction. […] With the intention of investigating local pHi dynamics in the region of the filopodia, we incubated primary explants in absence of CO2/HCO3^− for two hours after wound infliction to allow for filopodia formation. We then investigated pHi after an additional 15 minutes with or without CO2/HCO3^− or in the presence of pharmacological inhibitors (FIG. 13E,F). […]

[9] = test system: Na+,HCO3−-cotransport in primary aortic explants; test: Global pHi recovery and steady-state pHi in primary aortic explants (BCECF); type: cell-based, mouse
Procedure: Primary explants were produced from thoracic aortas and common carotid arteries of NBCn1 KO and wild-type (WT) mice. To best maintain the cell morphology and phenotype of native VSMCs, cultured cells were never passaged but investigated directly in primary explants.
as §3
as §2, with “HCO3^−-containing solutions were aerated with a gas mixture of 5% CO2/balance air, whereas HCO3^−-free solutions were gassed with air (i.e., 21% O2/balance N2). All solutions were titrated to pH 7.4 at 37° C.” left out

[10] = test system: migrating VSMCs of primary aortic explants; test: Filopodia length at the migrating front after scratch infliction; type: cell-based, mouse; conditions: for presence of filopodia: 5 μM
Procedure: as §1

T1 sequence (P19634 whole entry): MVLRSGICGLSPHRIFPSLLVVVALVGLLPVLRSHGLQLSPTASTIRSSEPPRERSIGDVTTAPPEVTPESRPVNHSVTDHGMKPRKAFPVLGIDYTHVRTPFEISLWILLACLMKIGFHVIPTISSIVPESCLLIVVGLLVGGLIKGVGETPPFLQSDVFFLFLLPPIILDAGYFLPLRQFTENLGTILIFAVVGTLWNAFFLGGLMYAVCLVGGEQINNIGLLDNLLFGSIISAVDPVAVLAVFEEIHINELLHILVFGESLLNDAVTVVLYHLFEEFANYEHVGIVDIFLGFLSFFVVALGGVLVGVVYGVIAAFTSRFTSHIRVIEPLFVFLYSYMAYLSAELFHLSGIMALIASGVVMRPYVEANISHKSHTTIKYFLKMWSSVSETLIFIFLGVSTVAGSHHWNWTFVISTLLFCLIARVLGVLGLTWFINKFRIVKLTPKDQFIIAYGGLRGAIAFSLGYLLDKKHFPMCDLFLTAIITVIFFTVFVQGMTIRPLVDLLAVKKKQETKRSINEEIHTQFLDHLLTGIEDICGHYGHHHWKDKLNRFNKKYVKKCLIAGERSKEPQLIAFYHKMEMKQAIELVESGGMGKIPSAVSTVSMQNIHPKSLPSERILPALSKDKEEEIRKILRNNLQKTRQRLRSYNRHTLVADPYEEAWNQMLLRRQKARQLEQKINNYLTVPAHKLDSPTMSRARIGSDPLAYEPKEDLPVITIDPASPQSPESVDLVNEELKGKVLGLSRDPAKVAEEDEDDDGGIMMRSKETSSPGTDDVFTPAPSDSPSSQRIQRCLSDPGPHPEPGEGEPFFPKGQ

CCN(c1nc(N)c(C(=O)N=C(N)N)nc1Cl)C(C)C [5-(N-Ethyl-N-isopropyl)amiloride]
remaining net acid extrusion after inhibition of Na+,HCO3−-cotransport in MCF-7 cells [1]: inhibited

Cc1ccc(CN(Cc2ccc(-c3ccccc3S(=O)(=O)NC#N)cc2)C(=O)c2ccccc2Cl)cc1 [S0859]
effect in breast cancer slices or freshly isolated breast cancer organoids [2]: has no effect | wound healing ([3]; 5 μM, PSS, presence of CO2/HCO3-): inhibited | cell integrity and morphology (primary aortic explants; 5 μM, 18 hours, PSS with CO2/HCO3-): well-maintained | cell morphology (primary aortic explants; 30 μM, 18 hours, PSS with CO2/HCO3-): severe morphological changes | cell viability (primary aortic explants; primary explants, CO2/HCO3−-containing PSS, FIG. 16): causes loss of cell viability | protein binding [4]: unusually strong protein binding | relative number of mitoses [5]: no effect | cellular net acid extrusion in isolated arteries [6]: does not affect | Na+,HCO3−-cotransport in cultures of MCF7 breast cancer cells [7]: inhibits | pHi of migrating VSMCs, in particular at the tip of filopodia ([8]; 5 μM, 15 minutes exposure, PSS): strongly acidified | Na+,HCO3−-cotransport activity ([9]; primary aortic explants from WT mice, CO2/HCO3- present, 5 and 30 μM): concentration-dependently attenuates | steady-state pHi ([9]; primary aortic explants, five minutes after addition of S0859): concentration-dependently attenuates | presence of filopodia ([10]; CO2/HCO3−-free conditions): unaffected | presence of filopodia ([10]; explants from WT mice, CO2/HCO3−-containing PSS): reduced

C[C@@H](N)[C@H]1CC[C@H](C(=O)Nc2ccncc2)CC1 [Y-27632]
wound healing ([3]; 10 μM, primary aortic explants from NBCn1 KO and WT mice): stimulated

CC(=O)Nc1nnc(S(N)(=O)=O)s1 [acetazolamide]
initial rate of wound healing ([3]; 100 μM, aortic explants from NBCn1 KO mice, CO2/HCO3−-containing medium with serum): increased | axial pHi gradients ([8]; 100 μM, explants from NBCn1 KO mice, presence of CO2/HCO3-): reestablishes | abundance of filopodia ([10]; 100 μM, aortic explants from NBCn1 KO mice, presence of CO2/HCO3-): increased abundance

— patent US20180057588A1, “Antibodies Towards an Extracellular Region of NBCn1” (Aarhus Universitet, priority 2015, published 2018)
